“And” between values parts separate entries of the source, which are not always exact repeats. Equal entries are not always repeated.
Key:
[1] = Critical micelle concentration by conductivity; format: physicochemical; settings: aqueous solution, 25 °C
Excerpt: The change in specific conductivity of ester-functionalized choline-based ILs as a function of their concentration was investigated. […] Conductometric plots of the other homologues are presented in the Supplemetary Materials (Figures S10 and S11).
In the pre- and postmicellization zones, the specific conductivity values are represented by two straight lines with different slopes. As a consequence of the micelle’s reduced mobility in comparison to the monomers and the binding of certain counterions to it, a pronounced change in slope is observed. The critical micelle concentration (CMC) value was calculated from the point of inflection in the curve. […] In accordance with the empirical Stauff–Klevens Equation (1), a linear relationship is observed between log CMC and alkyl chain length:log cmc = A − B × n(1)
Conductivity measurements were carried out at 25 °C using an Orion conductivity cell 913005MD with an epoxy/graphite electrode and a Thermo Orion 5 Star multiparameter instrument with a cell constant of 0.475 cm^−1.

[2] = test system: erythrocytes from rabbit blood; assay: Hemolytic activity; format: cell-based; settings: concentration inducing 50% hemolysis, PBS pH 7.4, 10 min
Procedure: To perform an initial assessment of cell toxicity, hemolysis has been employed. The hemolytic activity of ester-functionalized choline-based ILs was determined by mesuring the release of haemoglobin in erythrocytes from rabbit blood samples in the presence of these compounds. The HC50 values, representing the concentracion inducing 50% hemolysis, were calculated from the plots of the percentages of hemolysis versus CnECholBr concentration (Figure 7). The HC50 values are compiled in Table 4.
Rabbit blood samples, used to prepare the erythrocyte suspension, were obtained from the animal facility of the Research and Development Center (CID) of the Spanish National Research Council (CID-CSIC) in Barcelona, Spain. The collection of fresh blood from rabbits adhered strictly to the bioethical guidelines stipulated by Spanish legislation, ensuring ethical treatment of the animals and compliance with research protocols. Heparinized blood samples were centrifuged for 10 min at 3000 rpm. The supernatant containing the white cells was discarded, while the erythrocytes were washed three times in PBS (pH 7.4). Erythrocytes were then suspended in PBS at a cell density of 8 × 10^9 cells/mL. A series of different volumes of a concentrated IL solution (10 to 80 μL) were placed in Eppendorf tubes containing 25 μL of erythrocyte suspension and PBS was added to each tube to a total volume of 1 mL [33]. Samples were shaken for 10 min at rt and the tubes were centrifuged (5 min at 10,000 rpm). The percentage of hemolysis was calculated by comparing the absorbance (540 nm) of the supernatant of the samples containing surfactants with that of the hemolyzed control with distilled water. The HC50 (concentration of surfactant that causes 50% hemolysis) was determined from the concentration-response curves.

[3] = test system: Salmonella enterica; assay: MIC broth microdilution; format: cell-based; settings: Salmonella enterica ATCC14208, 24 h, 37 °C
Procedure: (§1) The antimicrobial activity of cholinium-based ILs with an ester group in the alkyl chain was evaluated against a range of representative bacteria and fungi.
(§2) Antibacterial assays were performed against the following microorganisms: Bacillus subtilis ATCC 6633, Staphylococcus epidermidis ATCC 12228, Staphylococcus aureus ATCC 29213, Micrococcus luteus ATCC10240, Listeria monocytogenes ATCC 15313, methicillin-resistant Staphylococcus aureus ATCC 43300, Escherichia coli ATCC 8739, Acinetobacter baumannii ATCC 19606, Klebsiella aerogenes ATCC 13048, Pseudomonas aeruginosa 9027, and Salmonella enterica ATCC14208. The antibacterial activity was assessed in vitro using the minimum inhibitory concentration (MIC) method. MIC is defined as the lowest concentration of an antimicrobial agent that prevents visible bacterial growth after 24 h of incubation at 37 °C. The ionic liquids were dissolved in Mueller–Hinton broth (MBH) at concentrations ranging from 1 to 256 μg/mL. The broth was added (200 μL) to appropriate wells of a 96-well polystyrene microtitre plate. Then, 10 μL of a nutrient broth starter culture of each bacterial strain was added to achieve final inocula of approximately […] colony forming units (CFU)/mL. A growth control using nutrient broth medium without the ionic liquid was included. The plates were incubated 37 °C for 24 h. Bacterial growth was initially observed visually, with increased turbidity indicating cell growth. […] A color change of resazurine from blue to pink indicated bacterial metabolic activity. All the experiments were performed in triplicate to ensure reproducibility.

[4] = test system: Klebsiella aerogenes; assay: MIC broth microdilution; format: cell-based; settings: ATCC13048; Klebsiella aerogenes ATCC 13048, 24 h, 37 °C
Procedure: as §1, §2

[5] = test system: Micrococcus luteus; assay: MIC broth microdilution; format: cell-based; settings: Micrococcus luteus ATCC10240, 24 h, 37 °C
Procedure: as §1, §2

[6] = test system: Pseudomonas aeruginosa; assay: MIC broth microdilution; format: cell-based; settings: Pseudomonas aeruginosa 9027, 24 h, 37 °C
Procedure: as §1, §2

[7] = test system: Acinetobacter baumannii; assay: MIC broth microdilution; format: cell-based; settings: ATCC19606; Acinetobacter baumannii ATCC 19606, 24 h, 37 °C
Procedure: as §1, §2

[8] = test system: Staphylococcus epidermidis; assay: MIC broth microdilution; format: cell-based; settings: ATCC12228; Staphylococcus epidermidis ATCC 12228, 24 h, 37 °C
Procedure: as §1, §2

[9] = test system: Listeria monocytogenes; assay: MIC broth microdilution; format: cell-based; settings: ATCC15313; Listeria monocytogenes ATCC 15313, 24 h, 37 °C
Procedure: as §1, §2

[10] = test system: Escherichia coli; assay: MIC broth microdilution; format: cell-based; settings: ATCC8739; Escherichia coli ATCC 8739, 24 h, 37 °C
Procedure: as §1, §2

[11] = test system: Staphylococcus aureus; assay: MIC broth microdilution; format: cell-based; settings: ATCC29213; Staphylococcus aureus ATCC 29213, 24 h, 37 °C
Procedure: as §1, §2

SMILES | CMC [1] | HC50 [2] | MIC [3] | MIC [4] | MIC [5] | MIC [6] | MIC [7] | MIC [8] | MIC [9] | MIC [10] | MIC [11]
CCCCCCCCCCOC(=O)C[N+](C)(C)CCO [C10ECholBr] | 11.2 ± 0.8 mM | >2500 µM | > 256 µg/mL | > 256 µg/mL | > 256 µg/mL | > 256 µg/mL | > 256 µg/mL | > 256 µg/mL | > 256 µg/mL | > 256 µg/mL | > 256 µg/mL
CCCCCCCCCCCCOC(=O)C[N+](C)(C)CCO [C12ECholBr] | 4.2 ± 0.5 mM | 232 ± 2 µM | > 256 µg/mL | > 256 µg/mL | 16 µg/mL | > 256 µg/mL | > 256 µg/mL | 64 µg/mL | > 256 µg/mL | > 256 µg/mL | 64 µg/mL
CCCCCCCCCCCCCCOC(=O)C[N+](C)(C)CCO.[Br-] [C14ECholBr, N-(2-hydroxyethyl)-N,N-dimethyl-2-oxo-2-(tetradecyloxy)ethan-1-aminium bromide] | 0.7 ± 0.1 mM | 56 µM and 56 ± 1 µM | > 256 µg/mL | > 256 µg/mL | 8 µg/mL | > 256 µg/mL | > 256 µg/mL | 64 µg/mL | > 256 µg/mL | > 256 µg/mL | 128 µg/mL
